Patent US9561228B2 (Celgene Avilomics Research, Inc., priority 2013, dated 2017)
pEC50: −log10 of the molar value.

Experiments:
Type in all cases: cell-based
[1] = test system: HCT116 cells (colorectal carcinoma); experiment: Inhibition of cancer cell proliferation, HCT116 (CellTiterGlo, 72 hours); conditions: Homo sapiens, HCT-116
Method in brief: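 3000 cells per well exposed to 3-fold serial compound dilutions from 5,000 nM (two-fold solution, stock level) for 72 hours at 37° C. CellTiterGlo luminescence converted to cell number via a standard curve; percent inhibition vs untreated wells, GI50 by curve fit.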

[2] = test system: A375 cells (malignant melanoma); experiment: Inhibition of cancer cell proliferation, A375 (CellTiterGlo, 72 hours); conditions: Homo sapiens, A-375
Method in brief: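 GI50 derived from % growth inhibition relative to untreated wells, after luminescence (CellTiterGlo, 10 min) was converted to cell counts using a standard curve. Compound given as 3-fold dilutions from a 2× 5,000 nM stock in serum-free DMEM; 3000 A375 cells/well, 72 h culture at 37 °C.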

[3] = test system: ERK1/2 phosphorylation of p90RSK in A375 cells; experiment: Detection of total and phosphor-RSK by MSD ELISA (A375); conditions: Homo sapiens, A-375, read-out: ERK1/ERK2 PRSK A375 EC50
Method in brief: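 Electrochemiluminescent MSD ELISA: common RSK capture antibody, with pRSK Ser380 or total RSK detection antibodies plus SulfoTag secondaries. Samples were lysates of A375 cells exposed to compound for 2 h at 37° C after overnight culture in 0.1% FBS DMEM.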

| Compound | GI50 [1] [nM] | GI50 [2] [nM] | pEC50 [3] |
| --- | --- | --- | --- |
| C=CC(=O)Nc1ccccc1Nc1nc(Nc2cc(OC)nc(N3CCN(C)CC3)c2)ncc1C(F)(F)F [Compound I-324, N-(2-((2-((2-methoxy-6-(4-methylpiperazin-1-yl)pyridin-4-yl)amino)-5-(trifluoromethyl)pyrimidin-4-yl)amino)phenyl)acrylamide] | < 100 | < 100 | 6.30 to 7.00 |
| C=CC(=O)Nc1ccccc1Nc1nc(Nc2cc(OC)ccc2C)ncc1C(F)(F)F [Compound I-340, N-(2-((2-((5-methoxy-2-methylphenyl)amino)-5-(trifluoromethyl)pyrimidin-4-yl)amino)phenyl)acrylamide] | 501 to 999 | 101 to 500 | > 7.00 |
| C=CC(=O)Nc1cc(C(F)(F)F)ccc1Nc1nc(Nc2cc(OC)ncc2C)ncc1C(F)(F)F [Compound I-323, N-(2-((2-((2-methoxy-5-methylpyridin-4-yl)amino)-5-(trifluoromethyl)pyrimidin-4-yl)amino)-5-(trifluoromethyl)phenyl)acrylamide] | 501 to 999 | 101 to 500 | > 7.00 |
| C=CC(=O)Nc1ccccc1Nc1nc(Nc2cc(NCCOC)nc(OC)c2)ncc1C(F)(F)F [Compound I-286, N-(2-((2-((2-Methoxy-6-((2-methoxyethyl)amino)pyridin-4-yl)amino)-5-(trifluoromethyl)pyrimidin-4-yl)amino)phenyl)acrylamide] | < 100 | < 100 | > 7.00 |
| C=CS(=O)(=O)Nc1cc(C)ccc1Nc1nc(Nc2cc(OC)ncc2C)ncc1C(F)(F)F [Compound I-333, N-(2-((2-((2-methoxy-5-methylpyridin-4-yl)amino)-5-(trifluoromethyl)pyrimidin-4-yl)amino)-5-methylphenyl)ethenesulfonamide] | > 1000 | > 1000 | 6.30 to 7.00 |
| C=CC(=O)Nc1cc(OC)ccc1Nc1nc(Nc2cc(OC)ncc2C)ncc1C(F)(F)F [Compound I-284, N-(5-Methoxy-2-((2-((2-methoxy-5-methylpyridin-4-yl)amino)-5-(trifluoromethyl)pyrimidin-4-yl)amino)phenyl)acrylamide] | 101 to 500 | < 100 | > 7.00 |
| C=CC(=O)Nc1cc(C)ccc1Nc1nc(Nc2cc(OC)nc(N(C)CCOC)c2)ncc1C(F)(F)F [Compound I-336, N-(2-((2-((2-methoxy-6-((2-methoxyethyl)(methyl)amino)pyridin-4-yl)amino)-5-(trifluoromethyl)pyrimidin-4-yl)amino)-5-methylphenyl)acrylamide] | 101 to 500 | < 100 | 6.30 to 7.00 |

Results, then the compound that gave them:

| GI50 [1] [nM] | GI50 [2] [nM] | pEC50 [3] | Compound |
| --- | --- | --- | --- |
| 101 to 500 | 101 to 500 | 6.30 to 7.00 | C=CC(=O)Nc1cc(C)ccc1Nc1nc(Nc2cc(OC)nc(N(C)C3CC3)c2)ncc1C(F)(F)F [Compound I-342, N-(2-((2-((2-(cyclopropyl(methyl)amino)-6-methoxypyridin-4-yl)amino)-5-(trifluoromethyl)pyrimidin-4-yl)amino)-5-methylphenyl)acrylamide] |
| 101 to 500 | < 100 | 6.00 to 6.30 | C=CC(=O)Nc1ccccc1Nc1nc(Nc2ccnnc2)ncc1C(F)(F)F [Compound I-293, N-(2-((2-(Pyridazin-4-ylamino)-5-(trifluoromethyl)pyrimidin-4-yl)amino)phenyl)acrylamide] |
| 501 to 999 | 101 to 500 | > 7.00 | C=CC(=O)Nc1cc(C)ccc1Nc1nc(Nc2cc(OC)ncc2C)ncc1C(F)(F)F [Compound I-90, N-(2-((2-((2-Methoxy-5-methylpyridin-4-yl)amino)-5-(trifluoromethyl)pyrimidin-4-yl)amino)-5-methylphenyl)acrylamide] |
| 101 to 500 | 101 to 500 |  | C=CC(=O)Nc1ccccc1Nc1nc(N[C@H]2CCN(C(C)=O)C2)ncc1C(F)(F)F [Compound I-56, (S)—N-(2-((2-((1-Acetylpyrrolidin-3-yl)amino)-5-(trifluoromethyl)pyrimidin-4-yl)amino)phenyl)acrylamide] |
